We go through four compounds from patent US7947653B1, “Methods for treating epidermal growth factor receptor tyrosine kinase inhibitor-resistant cancers” (Cold Spring Harbor Laboratory, priority 2009, dated 2011).

One assay relates to NCI-H1650 M3 cells. Description: Sensitivity to erlotinib, MTT assay, erlotinib-resistant cells. Type of assay: cell-based, human. Here is the method: Viability was measured by MTT assay relative to untreated cells, with each data point showing the average of four replicates.
On the technique in general: Tetrazolium dyes change colour on reduction, which living cells bring about.

In assay [1] the test system is phospho-STAT3. The experiment in a line: Western blot for phospho-STAT3, NCI-H1650 M3 cells. It counts as cell-based, human. The protocol:
(§1) Adherent cells were washed with 1×PBS and whole cell lysate was extracted and western blot analysis was performed as previously described (Sordella et al. Science 305, 1163-1167; 2004). Antibodies against phosphor-EGFR (Tyr1068), total Akt, phospho-Akt (Ser473), total ERK 1/2, phospho-ERK 1/2 (Thr202/tyr204), phospho-STAT3 (Tyr705), cleaved PARP and phospho-MET (Tyr1234/Tyr1235) were purchased from Cell Signaling Technology (Danvers, Mass.). Total cMET and total EGFR antibodies were purchased from Santa Cruz Biotechnology (Santa Cruz, Calif.). The antibody against total STAT3 was purchased from BD Biosciences (San Jose, Calif.).
To determine whether IL-6 was the autocrine factor responsible for promoting STAT3 phosphorylation in the erlotinib-resistant cells, the expression of IL-6 was inhibited using siRNA technology. Briefly, NCI-H 1650 M3 cells were transfected with siRNA targeting IL-6 (siRNA I and II) or a non-specific siRNA (siRNA III) using Lipofectamine 2000 at a final concentration of 30 nM siRNA. After 6 days cell extracts were analyzed by immunoblotting for phospho-STAT3, STAT3 and tubulin. […] Thus, an increased secretion of IL-6 was responsible for the observed STAT3 phosphorylation. […] Cell extracts were analyzed by immunoblot for phospho-STAT3 and total STAT3. […]

In assay [2] the test system is NCI-H1650 cells. Description: Mouse xenograft model, tumor burden. It counts as in vivo, Nu/Nu mice. The conditions noted are these: topical TPA 5 days, then erlotinib by oral gavage versus DMSO. Here is the method:
The in vivo mouse experiments were performed by inoculating subcutaneously 3×10^6 NCI-H1650 cells subcutaneously into each flank of immunodeficient Nu/Nu mice in Swiss CD 1 background (Charles River Breeding Laboratories, Wilmington, Mass.). After the tumors reached a volume of approximately 100 mm^3, mice were treated topically every 2 days with TPA (10 μL of 0.25 mg/mL solution in acetone) or with acetone for 5 days. […] Tumor volume was monitored with a digital caliper and calculated using the following formula: (length)×(width)^2/2.
IL-6 is a pleiotropic cytokine that exerts important biological functions in a wide variety of systems and processes (e.g., inflammation, acute-phase reaction, nervous and endocrine systems, bone metabolism, hematopoiesis). […] Cutaneous inflammation and secretion of IL-6 by topic treatment of the mouse epidermis with low dose of 12-O-tetradecanoyl-phorbol-13-acetate (TPA) every other day was induced in a Nu/nu mouse model (Vasunia et al. Carcinogenesis 1994, 15: 653). Acetone was used as a vehicle control. The Nu/nu mice were subsequently injected in the flank with NSCLC expressing mutant EGFR.
After 8 days, tumor burden was evaluated and the averages of four separate tumors were charted.

Assay [3] deals with IL-6. Description: IL-6 immunostaining of tumor sections. It counts as in vivo, Nu/Nu mice. The conditions noted are these: TPA-treated versus acetone-treated mice, topical. The protocol:
Formalin-fixed, paraffin-embedded sections (4 μm) were stained for IL-6. Sections were de-embedded and rehydrated and epitope retrieval was performed by heating the sections in 0.01M citrate buffer at pH 6.0 in a microwave oven for 10 minutes. Endogenous peroxidase activity was blocked by treatment with 3% hydrogen peroxide in PBS for 10 minutes. After washing with PBS the blocking was performed using the Avidin/Biotin blocking kit (Vector laboratories, Cambridge, UK), Super Block (ID laboratories, London, CDN) and Mouse Block (ID laboratories, London, CDN). The sections were incubated with the primary antibody IL-6 (ab6672; Abcam, Cambridge, UK) in 1:300 dilution at 4° C. overnight. The IHC detection was done with the IDetect Super Stain System HRP (ID laboratories, London, CDN). […]
Protein expression was measured by defining regions of interest (ROI) using automated cell acquisition and quantification software for Immunohistochemistry (Histoquest™) and immunofluorescence (Tissuequest™).
Immunostaining of tumor sections using an anti-IL-6 antibody confirmed that TPA was able to augment IL-6 expression in the tumors. […] The levels of IL-6 in tumor matters were further measured by defining regions of interest (ROI) using automated cell acquisition and quantification software for immunohistochemistry (Histoquest™) or quantification software for immunofluorescence (Tissuequest™). […]

For another assay, the system named is NCI-H1650. The experiment in a line: Sensitivity to erlotinib, MTT assay. It counts as cell-based. To be noted: Homo sapiens, read-out: IC50 to either gefitinib or erlotinib treatment; NCI-H1650, EGFR delE746-A750; 'typically displays'.
Assay [4] has as its system phospho-STAT3. Description: Western blot for phospho-STAT3, parental cells. It counts as cell-based, human. Here is the method: as §1
(§2) Cell extracts were analyzed by immunoblotting with antibodies specific to Tubulin, AKT, P-AKT, STAT3, and P-STAT3.
In general terms: Immunoblotting shows a protein as a band on a membrane.

The subject of the next assay is P-EGFR. The experiment in a line: Western blot for P-EGFR, parental and resistant cells. Type of assay: cell-based, human. To be noted: parental versus NCI-H1650 M3, erlotinib 0.01-10 μM, 3 hours. An excerpt: (§3) Antibodies against phosphor-EGFR (Tyr1068), total Akt, phospho-Akt (Ser473), total ERK 1/2, phospho-ERK 1/2 (Thr202/tyr204), phospho-STAT3 (Tyr705), cleaved PARP and phospho-MET (Tyr1234/Tyr1235) were purchased from Cell Signaling Technology (Danvers, Mass.). Total cMET and total EGFR antibodies were purchased from Santa Cruz Biotechnology (Santa Cruz, Calif.). The antibody against total STAT3 was purchased from BD Biosciences (San Jose, Calif.).

The next assay relates to P-AKT. Description: Western blot for P-AKT. Type of assay: cell-based, human. Here is the method: as §3, §2
The subject of another assay is cleaved PARP. The experiment in a line: Immunoblot for cleaved PARP (apoptosis). Type of assay: cell-based, human. The protocol:
as §1
Cells not treated with the drug were used as a control. Cell extracts obtained after 72 hours were analyzed by immunoblotting for cleaved PARP (CL-PARP), an indicator of apoptosis status.

The subject of assay [5] is IL-6. The experiment in a line: IL-6 ELISA of cell media. It counts as cell-based, human. The conditions noted are these: NCI-H1650 M3, in the presence of erlotinib 10 μM. The protocol: Cells were grown to approximately 80% confluency. Cells were washed with 1×PBS and fresh media was added. After 24 hours the supernatant was collected and analyzed for IL-6 using an ELISA kit (Diaclone, Canton, Mass.) following the manufacturers instruction.
The mRNA levels of various secreted proteins, including HGF, EGF, LIF, CNTF, IL-1A, IL-11, OSM and IL-6 (which are known to increase STAT3 phosphorylation), were examined by RT-PCR, the results normalized against beta-actin mRNA levels. No substantial levels of HGF were detected in either the parental-sensitive cells or in the resistant cells. Among these protein factors, a substantial increase in IL-6 mRNA levels was found in the resistant cells as compared to parental cells. This increase in IL-6 mRNA expression correlated with augmented levels of the protein secretion as determined by enzyme-linked immunosorbent assay (ELISA). See FIG. 2, Panel A; levels of IL-6 were measured by ELISA with each point representing the average of four data points.
On the technique in general: In an ELISA, binding on a coated surface is turned into a signal by an enzyme label.

A further assay relates to PC9 cells. Description: Sensitivity to erlotinib with IL-6, MTT assay. Type of assay: cell-based, human. The conditions noted are these: PC9, 10 ng/ml IL-6 24 hours, then erlotinib at various concentrations 72 hours.
Assay [6] relates to NCI-H1650 cells. Description: Soft agar assay. It counts as cell-based, human. To be noted: NCI-H1650, erlotinib with or without IL-6 (10 ng/ML). The protocol: Cells were plated in triplicate in 12-well plates at 5000 cells/well, mixed in RPMI-1640, 5% FBS and 0.35% agarose. Cells were cultured for 20 days in presence of the indicated treatment. Colonies were visualized by staining with tetrazolium salt (Schaeffer W. I., Friend K. (1976) Cancer Lett 1:259-262). The number of colonies were determined using the J-Image software (htpp://rsbweb.hih.gov/ij/) on Z-stack images (Z=1.5 mm) at 5× magnification. Each data point represents the average of 3 fields from 3 individual wells.
The numbers of cell colonies were countered after a suitable period of time. The number of colonies were determined using the J-image software on Z-stack images (Z=1.5.mm) at 5× magnification. […] See FIG. 3, Panel C (each point represents the average of 3 fields from individual wells). […] See FIG. 3, Panel D (each bar representing the average of 4 replicates).

For assay [7], the system named is NSCLC cell lines expressing mutant EGFR. Description: Cell proliferation upon stimulation with IL-6. It counts as cell-based, human. The conditions noted are these: stimulation with IL-6 (10 ng/ml).
[8] abbreviates: cells grown with or without IL-6, then erlotinib 4 hours, cell line not stated.

With `CC(C)(C)c1nc2c3ccc(F)cc3c3c(=O)[nH]ccc3c2[nH]1` [P6, 2-tert-butyl-9-fluoro-3,6-dihydro-7H-benz[h]-imidaz[4,5-f] isoquinoline-7-one], in the assay on NCI-H1650 M3 cells (NCI-H1650 M3, P6 2 μM), the “cell viability upon erlotinib treatment” value is reported as “significantly decreased”. Further, the STAT3 phosphorylation levels result in the assay with phospho-STAT3 [1] (NCI-H1650 M3, 2 μM, 2 days) is on record as “decreased”.

Regarding `CCCCCCCCCCCCCC(=O)O[C@@H]1[C@@H](C)[C@@]2(O)[C@@H](C=C(CO)C[C@]3(O)C(=O)C(C)=C[C@@H]23)[C@@H]2C(C)(C)[C@]12OC(C)=O` [TPA, 12-O-tetradecanoyl-phorbol-13-acetate], in the assay with NCI-H1650 cells [2], the “tumor response to erlotinib treatment (tumor burden)” value is “dramatically reduced”. Moreover, the “IL-6 mean intensity in tumors” value in the assay on IL-6 [3] is given as “much higher”.

Broadly, the IC50 is the concentration that gives 50% inhibition. Consider `C#Cc1cccc(Nc2ncnc3cc(OCCOC)c(OCCOC)cc23)c1` [erlotinib, N-(3-ethynylphenyl)-6,7-bis(2-methoxyethoxy)quinazolin-4-amine], for which the IC50 with NCI-H1650 is approximately 5 µM. For the same compound, the “erlotinib concentration in the presence of which the isolated cell line is capable of growing” value in the assay with NCI-H1650 M3 cells (NCI-H1650 M3, selected in constant high erlotinib) is listed as “up to 30 μM”. In the assay with NCI-H1650 M3 cells (erlotinib 0.3125-10 μM, 72 hours, particularly at high concentrations), the “cell viability of NCI-H1650 M3 cells versus parental cells” value is “much higher than that of the parental cells”. For the same compound, the “phosphorylated STAT3” value with phospho-STAT3 [4] (parental NCI-H1650 cells, high erlotinib concentrations, 3 hours) was “undetectable”. In addition, the STAT3 phosphorylation levels entry in the assay on phospho-STAT3 [1] (NCI-H1650 M3, erlotinib up to 10 μM, 3 hours) is “maintained high STAT3 phosphorylation levels”. The “EGFR phosphorylation levels upon erlotinib treatment” value with P-EGFR is “comparable inhibition”. In addition, the “levels of phosphorylation of AKT” value in the assay with P-AKT (parental versus NCI-H1650 M3, erlotinib treatment) was “similarly inhibited”. Besides, the “cleavage of PARP upon erlotinib treatment” value with cleaved PARP (NCI-H1650 M3 compared to parental cells, erlotinib 10 μM, 24 hours) is on record as “substantial decrease”. Further, the “level of CL-PARP in erlotinib-treated cells compared to control cells” value in the assay on cleaved PARP (resistant cells, extracts after 72 hours) was “significantly increased”. Also, in the assay on IL-6 [5], the “IL-6 levels in the media (ELISA)” value is listed as “did not change”.

In the case of “IL-6: Recombinant Interleukin-6 (rhIL6) from R&D systems”, in the assay on phospho-STAT3 [4] (setting [8]), the “effect on erlotinib-mediated inhibition of STAT3 phosphorylation” value is given as “impaired inhibition of STAT3 phosphorylation”. The “effect on erlotinib-mediated inhibition of AKT activation” value with P-AKT (setting [8]) is “did not have any effect”. Besides, in the assay with cleaved PARP (resistant cells grown with IL-6 24 hours, then erlotinib, 72 hours), the “CL-PARP levels in the drug treated cells” value is “decreased CL-PARP levels”. The “cell resistance to erlotinib (viability by MTT)” value in the assay with PC9 cells is “increased PC9 cell resistance to erlotinib”. Besides, in the assay with NCI-H1650 cells [6], the “cell resistance to erlotinib (number of colonies in soft agar)” value is listed as “significantly increased cell resistance to erlotinib”. For the same compound, in assay [7], the cell proliferation entry is “No substantial changes”.
